Test results: PMC9720346, “Suppression of amyloid-β fibril growth by drug-engineered polymorph transformation” (The Journal of Biological Chemistry, 2022)

How the values were obtained:
[1] = molecular target: T1, Aβ40 fibrils with structure imposed by bexarotene (bexarotene fibrils) (Homo sapiens, UniProt P05067); assay: Time-resolved in situ AFM: growth rate of bexarotene fibrils after adding bexarotene; type: biochemical; conditions: 3 μM Aβ40, 1 μM bexarotene, 27 °C
T1 construct: host or cells: E. coli BL21(DE3)
Method: To prepare samples for AFM growth rate measurements, 2 μl of second-generation normal (or bexarotene) fibrils was added to the fibril growth buffer. Urea (Sigma–Aldrich) was also added to the solution, to a final concentration of 1 M, if needed based on the experiments. The diluted fibril solution then was sonicated (6 W output) for 2 min with 15 s intervals on ice and was kept at 27 °C for at least 15 min to equilibrate the temperature. Then Aβ40 peptides were added to the fibril solution at a desired final concentration, and the total volume of the solution was adjusted to 1 ml.
Multimode atomic force microscope (Nanoscope VIII or IV; Bruker) in tapping mode was used to monitor the growth of fibrils. To collect images, 500 μl of the prepared sample was injected into the AFM liquid cell over freshly cut mica (Ted Pella, Inc) attached to a 15 mm metal disk (Ted Pella, Inc), and to avoid any leakage, an O-ring was inserted firmly to the liquid cell. The temperature in the liquid cell reached equilibrium of 27.0 ± 0.1 °C within 15 min, higher than room temperature (ca. 22 °C), because of heating by the AFM scanner and laser ([69], [70], [71]). Height, amplitude, and phase images were collected in image sizes ranged from 2 μm × 2 μm to 8 μm × 8 μm, and scan rates range between 3 and 3.5 s^−1 in most images. […]

Aβ40 peptides = molecular target: T2, Aβ40 peptides (Homo sapiens, UniProt P05067); assay: Complexation of Aβ40 with bexarotene (UV absorbance titration at 280 nm); type: binding; conditions: 156 μM Aβ40 in ammonium acetate titrated with 20 aliquots of 142 μM bexarotene; absorbance at 280 nm vs sum of individual absorbances
T2 construct: host or cells: E. coli BL21(DE3)
Method: This addition was repeated 20 times.
Complexation of Aβ40 with bexarotene. To determine the extinction coefficient of bexarotene at 280 nm, we measured the absorbance of bexarotene at 14 gradually decreasing concentrations (Fig. S2A). The stock solution of bexarotene (0.2 mM) was diluted in ammonium acetate to achieve the desired concentrations. Then, the correlation between absorbance and bexarotene concentration was plotted and the extinction coefficient was obtained from the slope of the best linear regression fit (ε280 = 10370 ± 83 M^-1 cm^-1).
This addition was repeated 20 times, and at each step, a spectrum was collected using DU 800 Spectrophotometer (Beckman Coulter).

[2] = molecular target: T3, Aβ40 fibrils nucleated in the absence of bexarotene (normal fibrils) (Homo sapiens, UniProt P05067); assay: Time-resolved in situ AFM: growth rate of normal Aβ40 fibrils after adding bexarotene; type: biochemical; conditions: 3 μM Aβ40, bexarotene 0.1, 0.5 and 1.0 μM, 27 °C, about 30 measurements per concentration
T3 construct: host or cells: E. coli BL21(DE3)
Method: We deposit fibrils preformed in the absence of bexarotene on mica and monitor the growth of the fibril tips along the fibril axis with respect to immobile reference points (Fig. 2B) in Aβ40 solutions with known concentrations. We evaluate the fibril growth rate as the slope of the time correlation of the fibril tip displacement (Fig. 2C) ([41]). […] Fibril growth comprises association of peptide chains to fibril tips.
To prepare samples for AFM growth rate measurements, 2 μl of second-generation normal (or bexarotene) fibrils was added to the fibril growth buffer. Urea (Sigma–Aldrich) was also added to the solution, to a final concentration of 1 M, if needed based on the experiments. The diluted fibril solution then was sonicated (6 W output) for 2 min with 15 s intervals on ice and was kept at 27 °C for at least 15 min to equilibrate the temperature. Then Aβ40 peptides were added to the fibril solution at a desired final concentration, and the total volume of the solution was adjusted to 1 ml. […]
To study the effect of bexarotene on normal and bexarotene fibril growth rates (Figs. 2D and 5D), first, a fibril suspension at 3 μM Aβ40 peptide concentration was prepared as described previously, without bexarotene, and the fibril growth was monitored with AFM in tapping mode for 15 to 30 min. […]

Aβ42 = conditions: cited from earlier work
Aβ40 = molecular target: T4, Aβ40 (Homo sapiens, UniProt P05067); assay: Thioflavin T (ThT) fluorescence assay of Aβ40 fibrillization; type: biochemical; conditions: 50 μM Aβ40, bexarotene 17 and 50 μM, 35 μM ThT, 40 mM sodium phosphate pH 7.4, 37 °C, ex 442/em 488 nm, 15 h
T4 construct: host or cells: E. coli BL21(DE3)
Method: To monitor the evolution of fibrillization and the overall impact of bexarotene, we employed the fluorescence intensity emitted at 488 nm by the dye thioflavin T (ThT) in the presence of Aβ sheets, which is expected to scale the total amyloid mass ([42]).
The stock solution of ThT was prepared by dissolving ThT (Sigma–Aldrich) in ethanol (Decon Labs) and filtering through […] polyethersulfone syringe filter. […] For control experiment, ammonium acetate solution in a volume equivalent to the peptides volume was added to the growth buffer instead of Aβ40 peptides. […] The ThT fluorescence signal was measured at 37 °C (with mixing every 5 min) every 15 min with excitation and emission at 442 and 488 nm, respectively, for a period of 15 h using SpectraMax Gemini EM Microplate Reader (Molecular Devices). The sigmoid curves were obtained by subtracting the […] of the control and normalizing all the data points to their maximum value.
Thioflavin T (ThT) fluorescence assay. […] The concentration was determined by measuring the absorbance at 416 nm using the extinction coefficient of 26.6 mM^-1 cm^-1. […] The ThT fluorescence signal was measured at 37 °C (with mixing every 5 minutes) every 15 minutes with excitation and emission at 442 nm and 488 nm, respectively, for a time period of 15 hours using SpectraMax Gemini EM Microplate Reader (Molecular Devices). […]

T2 sequence (P05067 671-711): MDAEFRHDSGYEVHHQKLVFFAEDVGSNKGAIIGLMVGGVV
T1 sequence (P05067 671-711): as above
T4 sequence (P05067 671-711): as above
T3 sequence (P05067 671-711): as above

growth rate of bexarotene fibrils after adding bexarotene [1]: does not inhibit or promote the growth | binding of bexarotene to Aβ40 monomers (complex formation) (Aβ40 peptides): does not perceptibly bind | average growth rate of normal fibrils after adding bexarotene [2]: does not modify the average growth rates | initial period of negligible ThT fluorescence (fibril nucleation delay) (Aβ40): suppresses Aβ40 fibril nucleation
SMILES: C=C(c1ccc(C(=O)O)cc1)c1cc2c(cc1C)C(C)(C)CCC2(C)C [bexarotene]
binding of bexarotene to Aβ42 (Aβ42): undetectable binding
